Measured values: patent US12493040B2, “Cancer detection method using sense of smell of nematode” (HIROTSU BIO SCIENCE INC., priority 2013, dated 2025)

System: RNAi-treated eri-1 (mg366) nematodes
Assay: RNAi screening of olfactory receptor genes: chemotaxis assay of RNAi-treated nematodes to odorants
Type: in vivo, Caenorhabditis elegans
Settings: low concentration of attractant
Summary of the method: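 eri-1 (mg366) worms knocked down by feeding RNAi (Ahringer library) on IPTG/ampicillin NGM plates with E. coli for 4 days, then tested for chemotaxis, 30–50 worms per assay. Odorants at 1 μl of 10^−3 or 10^−4 dilution, or 1 and 5 μl undiluted. Hits scored by z score, thresholds ±1.96 (P<0.05) or ±0.96.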

Cc1nc(C)c(C)s1 [trimethylthiazole]
chemotaxis index (Control nematodes): 0.64 ± 0.015 | chemotaxis index (srh-10 RNAi-treated nematodes): 0.88 | chemotaxis index (srh-11 RNAi-treated nematodes): 0.85 | chemotaxis index (srh-15 RNAi-treated nematodes): 0.91 | chemotaxis index (srh-16 RNAi-treated nematodes): 0.49 | chemotaxis index (srh-18 RNAi-treated nematodes): 0.91 | chemotaxis index (srh-19 RNAi-treated nematodes): 0.88 | chemotaxis index (srh-22 RNAi-treated nematodes): 0.75 | chemotaxis index (srh-23 RNAi-treated nematodes): 0.78 | chemotaxis index (srh-24 RNAi-treated nematodes): 0.92 | chemotaxis index (srh-25 RNAi-treated nematodes): 0.95 | chemotaxis index (srh-27 RNAi-treated nematodes): 0.71 | chemotaxis index (srh-28 RNAi-treated nematodes): 0.92 | chemotaxis index (srh-36 RNAi-treated nematodes): 0.51 | chemotaxis index (srh-37 RNAi-treated nematodes): 0.87 | chemotaxis index (srh-39 RNAi-treated nematodes): 0.45 | chemotaxis index (srh-40 RNAi-treated nematodes): 0.73 | chemotaxis index (srh-41 RNAi-treated nematodes): 0.85 | chemotaxis index (srh-44 RNAi-treated nematodes): 0.90 | chemotaxis index (srh-45 RNAi-treated nematodes): 0.73 | chemotaxis index (srh-46 RNAi-treated nematodes): 0.83 | chemotaxis index (srh-48 RNAi-treated nematodes): 0.65 | chemotaxis index (srh-49 RNAi-treated nematodes): 0.59 | chemotaxis index (srh-50 RNAi-treated nematodes): 0.84 | chemotaxis index (srh-51 RNAi-treated nematodes): 0.64 | chemotaxis index (srh-52 RNAi-treated nematodes): 0.55 | chemotaxis index (srh-55 RNAi-treated nematodes): 0.56 | chemotaxis index (srh-59 RNAi-treated nematodes): 0.37 | chemotaxis index (srh-60 RNAi-treated nematodes): 0.79 | chemotaxis index (srh-61 RNAi-treated nematodes): 0.70 | chemotaxis index (srh-67 RNAi-treated nematodes): 0.63 | chemotaxis index (srh-68 RNAi-treated nematodes): 0.57 | chemotaxis index (srh-69 RNAi-treated nematodes): 0.75 | chemotaxis index (srh-70 RNAi-treated nematodes): 0.78 | chemotaxis index (srh-71 RNAi-treated nematodes): 0.85 | chemotaxis index (srh-72 RNAi-treated nematodes): 0.58 | chemotaxis index (srh-74 RNAi-treated nematodes): 0.44 | chemotaxis index (srh-75 RNAi-treated nematodes): 0.54 | chemotaxis index (srh-77 RNAi-treated nematodes): 0.52 | chemotaxis index (srh-79 RNAi-treated nematodes): 0.42 | chemotaxis index (srh-80 RNAi-treated nematodes): 0.39 | chemotaxis index (srh-82 RNAi-treated nematodes): 0.71 | chemotaxis index (srh-83 RNAi-treated nematodes): 0.86 | chemotaxis index (srh-97 RNAi-treated nematodes): 0.77 | chemotaxis index (srh-99 RNAi-treated nematodes): 0.65 | chemotaxis index (srh-100 RNAi-treated nematodes): 0.62 | chemotaxis index (srh-104 RNAi-treated nematodes): 0.65 | chemotaxis index (srh-105 RNAi-treated nematodes): 0.66 | chemotaxis index (srh-109 RNAi-treated nematodes): 0.76 | chemotaxis index (srh-111 RNAi-treated nematodes): 0.37 | chemotaxis index (srh-113 RNAi-treated nematodes): 0.83 | chemotaxis index (srh-115 RNAi-treated nematodes): 0.47 | chemotaxis index (srh-116 RNAi-treated nematodes): 0.56 | chemotaxis index (srh-118 RNAi-treated nematodes): 0.73 | chemotaxis index (srh-119 RNAi-treated nematodes): 0.71 | chemotaxis index (srh-120 RNAi-treated nematodes): 0.72 | chemotaxis index (srh-122 RNAi-treated nematodes): 0.44 | chemotaxis index (srh-123 RNAi-treated nematodes): 0.56 | chemotaxis index (srh-125 RNAi-treated nematodes): 0.70 | chemotaxis index (srh-128 RNAi-treated nematodes): 0.62 | chemotaxis index (srh-129 RNAi-treated nematodes): 0.69 | chemotaxis index (srh-130 RNAi-treated nematodes): 0.70 | chemotaxis index (srh-214 RNAi-treated nematodes): 0.78 | chemotaxis index (srh-216 RNAi-treated nematodes): 0.73 | chemotaxis index (srh-217 RNAi-treated nematodes): 0.60 | chemotaxis index (srh-220 RNAi-treated nematodes): 0.52 | chemotaxis index (srh-222 RNAi-treated nematodes): 0.58 | chemotaxis index (srh-223 RNAi-treated nematodes): 0.76 | chemotaxis index (srh-227 RNAi-treated nematodes): 0.76 | chemotaxis index (srh-229 RNAi-treated nematodes): 0.69 | chemotaxis index (srh-233 RNAi-treated nematodes): 0.38 | chemotaxis index (srh-235 RNAi-treated nematodes): 0.58 | chemotaxis index (srh-236 RNAi-treated nematodes): 0.64 | chemotaxis index (srh-239 RNAi-treated nematodes): 0.84 | chemotaxis index (srh-241 RNAi-treated nematodes): 0.85 | chemotaxis index (srh-243 RNAi-treated nematodes): 0.63 | chemotaxis index (srh-244 RNAi-treated nematodes): 0.76 | chemotaxis index (srh-247 RNAi-treated nematodes): 0.54 | chemotaxis index (srh-250 RNAi-treated nematodes): 0.58 | chemotaxis index (srh-251 RNAi-treated nematodes): 0.64 | chemotaxis index (srh-252 RNAi-treated nematodes): 0.64 | chemotaxis index (srh-258 RNAi-treated nematodes): 0.75 | chemotaxis index (srh-261 RNAi-treated nematodes): 0.72 | chemotaxis index (srh-264 RNAi-treated nematodes): 0.74 | chemotaxis index (srh-266 RNAi-treated nematodes): 0.25 | chemotaxis index (srh-274 RNAi-treated nematodes): 0.60 | chemotaxis index (srh-275 RNAi-treated nematodes): 0.53 | chemotaxis index (srh-276 RNAi-treated nematodes): 0.59 | chemotaxis index (srh-277 RNAi-treated nematodes): 0.65 | chemotaxis index (srh-279 RNAi-treated nematodes): 0.61 | chemotaxis index (srh-281 RNAi-treated nematodes): 0.55 | chemotaxis index (srh-282 RNAi-treated nematodes): 0.79 | chemotaxis index (srh-283 RNAi-treated nematodes): 0.56 | chemotaxis index (srh-284 RNAi-treated nematodes): 0.59 | chemotaxis index (srh-291 RNAi-treated nematodes): 0.91 | chemotaxis index (srh-292 RNAi-treated nematodes): 0.78 | chemotaxis index (srh-293 RNAi-treated nematodes): 0.82 | chemotaxis index (srh-297 RNAi-treated nematodes): 0.56 | chemotaxis index (srh-298 RNAi-treated nematodes): 0.82 | chemotaxis index (srh-308 RNAi-treated nematodes): 0.30
